Test results: patent US20230000842A1, “METHODS OF TREATING CARTILAGE DISORDERS THROUGH INHIBITION OF CLK AND DYRK” (SAMUMED, LLC, priority 2019, published 2023)

Assays:
CLK2 kinase = CLK2 kinase (Homo sapiens, UniProt P49760); test: CLK2 kinase activity assay (Z-lyte FRET); type: biochemical; details: Z-lyte Ser/Thr 6 peptide, 60 μM ATP, 1 h at room temperature;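 also: FRET read-out as coumarin to fluorescein emission ratio, unphosphorylated peptide as 0% and phosphorylated peptide as 100% controls, duplicate reactions, non-linear regression fit of dose-response curves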
Sequence of CLK2 kinase (P49760 whole entry): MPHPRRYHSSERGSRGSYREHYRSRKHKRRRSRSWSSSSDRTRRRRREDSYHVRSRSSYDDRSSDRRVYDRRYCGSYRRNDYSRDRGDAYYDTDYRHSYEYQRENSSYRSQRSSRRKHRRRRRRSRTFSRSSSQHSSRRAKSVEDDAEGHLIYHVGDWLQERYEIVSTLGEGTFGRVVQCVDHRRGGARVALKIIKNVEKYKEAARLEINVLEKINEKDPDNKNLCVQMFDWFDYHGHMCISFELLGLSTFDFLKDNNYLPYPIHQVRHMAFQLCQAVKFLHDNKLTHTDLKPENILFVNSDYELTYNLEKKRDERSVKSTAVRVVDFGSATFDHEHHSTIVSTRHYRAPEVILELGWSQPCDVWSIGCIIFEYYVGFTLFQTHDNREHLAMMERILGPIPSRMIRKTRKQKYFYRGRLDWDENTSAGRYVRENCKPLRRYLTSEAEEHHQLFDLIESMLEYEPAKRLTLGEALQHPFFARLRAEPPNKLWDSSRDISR
Method: (§1) This is a non-radioactive assay using fluorescence resonance energy transfer (FRET) between coumarin and fluorescein to detect kinase activity which is represented as a ratio of coumarin emission/fluorescein emission.
The mixture was allowed to incubate with the representative compounds for one hour at room temperature. All reactions were performed in duplicate. Unphosphorylated (“0% Control”) and phosphorylated (“100% control”) forms of Ser/Thr 6 served as control reactions. Additionally, an 11-point dose-response curve of Staurosporine (1 μM top) was run to serve as a positive compound control.
(§2) After incubation, Development Reagent A was diluted in Development Buffer then added to the reaction and allowed to further incubate for one hour at room temperature.
(§3) Dose-response curves were generated and inhibitory concentration (IC50) values were calculated using non-linear regression curve fit in the Dotmatics' Studies Software (Bishops Stortford, UK).

[1] = tested on: primary human mesenchymal stem cells (hMSCs); test: Chondrogenesis screening using primary human mesenchymal stem cells; type: cell-based; details: Homo sapiens, Mesenchymal stem cells, hMSC chondrogenesis; for EC50: concentration required to induce 50% levels of chondrogenesis with TGF-β3 as positive control, read-out: Conc (nM) of 50% TGF-β3 activity; for Emax: maximum activity relative to TGF-β3 (10 ng/mL) positive control, read-out: Max. Activity as % TGF-β3 activity
Summary of the method: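 Derived values are EC50 for 50% chondrogenesis, maximal activity and the dose giving it. These come from nodule area in passage 3–6 primary hMSCs, expressed as fold change over the mean of 3 same-plate DMSO wells, 2–3 replicates per concentration. TGF-β3 served as positive control.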

[2] = tested on: Wnt pathway activity (SW480 colon carcinoma cells stably expressing the Sp5-Luc reporter); test: Wnt pathway activity screening assay (Sp5-Luc reporter gene assay); details: Homo sapiens
[3] = tested on: MMP-3 levels in supernatant of chondrocytes stimulated with IL1-β; test: Chondrocyte protection assay compound screening (MMP-3 LANCE Ultra); type: cell-based, human; details: Homo sapiens, Chondrocyte, IL1-β 10 ng/mL overnight, 11-point curves from 3 μM to 0.05 nM; for Emax: read-out: Maximum % Inhibition
Summary of the method: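 Primary human chondrocytes (passage 2–5) in differentiation medium were stimulated with 10 ng/mL IL1-β for an overnight incubation at 37 °C. MMP-3 in 1:7-diluted supernatant was read by TR-FRET immunoassay against a standard curve, normalised to IL1-β-stimulated wells; EC50 and maximum % inhibition came from nonlinear regression.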

CLK3 kinase = CLK3 kinase (Homo sapiens, UniProt P49761); test: CLK3 kinase activity assay (Z-lyte FRET); type: biochemical; details: Z-lyte Ser/Thr 18 peptide, 156 μM ATP, 1 h at room temperature;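 also: kinase activity read as coumarin/fluorescein emission ratio by FRET, unphosphorylated peptide as 0% and phosphorylated peptide as 100% control, values from non-linear regression of dose-response curves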
Sequence of CLK3 kinase (P49761 whole entry): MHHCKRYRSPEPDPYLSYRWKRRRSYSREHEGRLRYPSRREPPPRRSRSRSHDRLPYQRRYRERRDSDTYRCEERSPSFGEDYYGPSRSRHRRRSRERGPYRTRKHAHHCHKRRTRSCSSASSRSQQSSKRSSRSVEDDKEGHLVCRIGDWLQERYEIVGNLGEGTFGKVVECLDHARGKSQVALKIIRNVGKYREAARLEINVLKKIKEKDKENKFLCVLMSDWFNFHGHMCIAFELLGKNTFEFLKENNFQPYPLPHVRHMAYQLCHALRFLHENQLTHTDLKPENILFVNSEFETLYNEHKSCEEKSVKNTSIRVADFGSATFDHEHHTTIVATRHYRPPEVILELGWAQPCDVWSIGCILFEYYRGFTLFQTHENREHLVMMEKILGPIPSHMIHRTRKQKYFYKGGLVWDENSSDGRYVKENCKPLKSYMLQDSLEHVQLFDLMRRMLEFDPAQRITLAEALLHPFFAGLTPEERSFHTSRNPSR
Method: as §1
The mixture was allowed to incubate with the representative compounds for one hour at room temperature. All reactions were performed in duplicate. Unphosphorylated (“0% Control”) and phosphorylated (“100% control”) forms of Ser/Thr 18 served as control reactions. Additionally, an 11-point dose-response curve of Staurosporine (1 μM top) was run to serve as a positive compound control.
as §2, §3

[4] = SW480, Table 4, SW480 cells stably expressing Sp5-Luc reporter, 10-point dose-response from 10 μM, 36 to 48 hours

Row | Structure (SMILES) | EC50 (CLK2 kinase) [nM] | EC50 [1] [nM] | Emax [1] [%] | EC50 [2, 4] [nM] | EC50 [3] [nM] | Emax [3] [%] | EC50 (CLK3 kinase) [nM] | EC50 ([2]; SW480) [nM]
1 | CC(C)Oc1cncc(C(=O)Nc2c[nH]nc2C(=O)Nc2ccc(OC3CCN(C)CC3)nc2)c1 [compound 10] | 6 | 2700 | 140 | 90.3 | 1.5 | 46.9 | 1780 | 
2 | O=C(Nc1c[nH]nc1C(=O)Nc1ccc(N2CCC(F)(F)C2)nc1)c1cncc(OC2CCNCC2)c1 [compound 12] | 6 |  | 75.2 | 2220 | 280 | 88.7 | 6020 | 
3 | O=C(Nc1c[nH]nc1C(=O)Nc1cncc(-c2cccc(F)c2)c1)c1cncc(OC2CCNCC2)c1 [compound 14] | 10 |  | 89.5 | 1600 | 339 | 71.9 | 4300 | 
4 | O=C(Nc1ccc(CN2CCCC2)cc1)c1n[nH]cc1/C=C/c1cccnc1 [compound 17] | 17 | 900 | 194 | 988 | 3.7 | 64.7 | 2670 | 
5 | Fc1ccc(-c2nnc(-c3n[nH]cc3/C=C/c3cccnc3)o2)cc1 [compound 23] | 27 |  | 23.4 | 1510 | ≥ 3000 | 51.7 | 627 | 
6 | CN1CCN(c2nccc3[nH]c(-c4n[nH]cc4/C=C/c4cncc(F)c4)nc23)CC1 [compound 25] | 1 |  | 39 | 325 | ≥ 3000 | 91.9 | 326 | 
7 | Fc1cccc(-c2cccc3[nH]c(-c4n[nH]cc4/C=C/c4cncc(CN5CCCC5)c4)nc23)c1 [compound 26] | 1 | 2700 | 81.7 | 82.1 | 1.4 | 64.6 | 492 | 
8 | CC(C)OCCCNC(=O)c1n[nH]c2ccc(-c3cccnc3)cc12 [compound 58] | 10 |  | 92.5 | 464 | 10.8 | 61.1 | 9840 | 
9 | CC(C)NC(=O)c1n[nH]c2ccc(-c3cncc(CN4CCC(F)(F)CC4)c3)cc12 [compound 75] | 13 | 2700 | 104 | 47.1 | 8 | 95.1 | 4020 | 
10 | O=C(Nc1cccnc1)c1n[nH]c2ccc(-c3cncc(CN4CC5CC(C4)O5)c3)cc12 [compound 101] | 1 | 900 | 121 |  | ≥ 3000 | 45.7 | 44 | 67
11 | CC(C)Oc1ccc(NC(=O)c2n[nH]c3ccc(-c4cncc(CN5CC6CC(C5)O6)c4)cc23)cn1 [compound 102] | 2 | 30 | 75.7 |  | 0.2 | 26.3 | 88 | 61
12 | CN1CCC(n2cc(NC(=O)c3n[nH]c4ccc(-c5cnn(C)c5)cc34)cn2)CC1 [compound 106] | 1 |  | 23.6 | 79 | 818 | 100 | 55 | 
13 | Cn1cc(-c2cc3c(C(=O)Nc4ccc(CN5CCCC5)cc4)n[nH]c3cc2F)cn1 [compound 107] | 1 |  | 27.4 | 242 | ≥ 3000 | 22.9 | 90 | 
14 | CN(C)C(=O)Nc1cncc(-c2cnc3[nH]nc(-c4nc5c(-c6cccc(F)c6)cncc5[nH]4)c3c2)c1 [compound 130] | 3 |  | 68.1 | 10 | 40.6 | 60.5 | 18 | 
15 | CC(C)C(=O)Nc1cncc(-c2ccc3[nH]nc(-c4nc5c(-c6ccccc6F)cncc5[nH]4)c3c2)c1 [compound 173] | 4 | 30 | 102 | 4 | ≥ 3000 | 90.2 | 24 | 
16 | CC(C)CC(=O)Nc1cncc(-c2ccc3[nH]nc(-c4nc5c(-c6cccnc6)cncc5[nH]4)c3c2)c1 [compound 189] | 8 | 100 | 198 | 12 | 111 | 100 | 26 | 
17 | CCCC(=O)Nc1cncc(-c2ccc3[nH]nc(-c4nc5c(N6CCCCC6)cncc5[nH]4)c3c2)c1 [compound 208] | 4 |  | 77.3 | 42 | 20.5 | 39 | 58 | 
18 | CN1CCN(c2nccc3[nH]c(-c4n[nH]c5cc(F)c(-c6cnn(C)c6)cc45)nc23)CC1 [compound 219] | 1 | 30 | 113 | 85.7 | 35.5 | 87.3 | 26 | 

Row | Structure (SMILES) | EC50 (CLK2 kinase) [nM] | EC50 [1] [nM] | Emax [1] [%] | EC50 [2, 4] [nM] | EC50 [3] [nM] | Emax [3] [%] | EC50 (CLK3 kinase) [nM] | EC50 ([2]; SW480) [nM]
19 | CN1CCN(c2cc(C(=O)Nc3cc4cc(-c5ccc(N)nc5)ccc4cn3)ccn2)CC1 [compound 596] | 1 |  |  | 710 | 798 | 39.9 | 42 | 
20 | O=C(Nc1cc2cc(-c3cncc(CN4CCC(O)CC4)c3)ccc2cn1)c1ccc(F)cc1 [compound 597] | 9 |  |  | 382 | 2.9 | 3.7 | 94 | 
21 | CC(C)Nc1cncc(-c2ccc3cnc(NC(=O)c4cccc(C5CCN(C)CC5)c4)cc3c2)n1 [compound 599] | 2 |  |  | 132 | ≥ 3000 | 66.4 | 11 | 
22 | O=C(Nc1cc2cc(-c3cncc(NC4CCNCC4)n3)ccc2cn1)C1CCCCC1 [compound 601] | 2 |  |  | 319 | ≥ 3000 | 91.6 | 59 | 
23 | O=C(Nc1cc2cc(-c3cncc(NCC4(F)CNC4)n3)ccc2cn1)C1CC1 [compound 602] | 2 |  |  | 119 | 897 | 99.5 | 18 | 
24 | CN1CCC(n2cc(C(=O)Nc3cc4cc(-c5cncc6[nH]ccc56)ccc4cn3)cn2)CC1 [compound 604] | 2 |  |  | 13.3 | 40.1 | 57.4 | 7 | 
25 | CN1CCC(n2cc(C(=O)Nc3cc4cc(-c5cnc6cc[nH]c6c5)ccc4cn3)cn2)CC1 [compound 605] | 2 |  |  | 26.8 | ≥ 3000 | 59.9 | 9 | 
26 | CN1CCN(c2cc(C(=O)Nc3cc4nc(-c5cnn(C)c5)ccc4cn3)ccn2)CC1 [compound 606] | 4 |  |  | 102 | ≥ 3000 | 76.1 | 60 | 
27 | CN1CCN(c2cc(C(=O)Nc3ncc4ccc(-c5cnn(C)c5)cc4n3)ccn2)CC1 [compound 607] | 6 |  |  | 468 | 417 | 79.7 | 135 | 
28 | Cn1cc(-c2ccc3cnc(NC(=O)c4ccc5nccnc5c4)cc3n2)cn1 [compound 608] | 8 |  |  | 447 | ≥ 3000 | 18.3 | 141 | 
29 | CC(C)OC(=O)N1CCC(n2cc(C(=O)Nc3cc4cc(-c5cnn(C)c5)ncc4cn3)cn2)CC1 [compound 609] | 6 |  |  | 824 | 154 | 50.2 | 61 | 
30 | CN1CCC2(CC1)CN(c1cc(C(=O)Nc3cc4cc(-c5cnn(C)c5CN5CCCCC5)cnc4cn3)ccn1)C2 [compound 610] | 9 |  |  | 607 | ≥ 3000 | 30.4 | 31 | 
31 | Cc1ncc(C(=O)Nc2cc3nc(-c4cnc(C)n4C)ccc3cn2)s1 [compound 611] | 3 |  |  | 107 | 8.7 | 68.3 | 31 | 
32 | CN1CC=C(c2cc(C(=O)Nc3cc4cc(-c5cncc(NC(C)(C)C)n5)cnc4cn3)ccn2)CC1 [compound 612] | 5 |  |  | 357 | ≥ 3000 | 38.6 | 12 | 
33 | O=C(Nc1cc2cc(-c3cncc(NC4CCNCC4)n3)ncc2cn1)C1CCOCC1 [compound 613] | 7 |  |  | 3640 | 46.6 | 51.4 | 133 | 
34 | CC(C)n1cc(C(=O)Nc2cc3cc(-c4cncc(NC5CCN(C)CC5)n4)ncc3cn2)cn1 [compound 614] | 7 |  |  | 164 | ≥ 3000 | 41.1 | 97 | 
35 | CN1CCC(n2cc(C(=O)Nc3ncc4ccc(-c5cncc6[nH]ccc56)cc4n3)cn2)CC1 [compound 616] | 6 |  |  | 1400 | ≥ 3000 | 48.3 | 19 | 
